Laboratory results taken from patent publication US6548059B1, “Promotion of proliferation of adult corneal endothelial cells” (The Schepens Eye Research Institute, Inc., priority 1999, dated 2003).
Like-named read-outs stand apart in the source and are kept apart here.

Key:
[1] = test system: corneal endothelial cell-cell contacts
Protocol: Twenty-one human corneas were obtained from donors of about 52-75 years of age (Avg.=65.1 years old). Whole corneas were usually cut in quarters to increase sample size. In some cases, whole corneas were used as controls. Corneal pieces were placed endothelial-side up in individual wells of a 24-well tissue culture plate (Falcon, Lincoln Park, N.J.). Pieces were incubated for about 24 hrs in Medium-199 containing 10% fetal bovine serum (FBS), 10 ng/ml epidermal growth factor (EGF) (Upstate Biotechnologies, Lake Placid, N.Y.), 20 ng/ml fibroblast growth factor(FGF) (pituitary-derived, Biomedical Research Technologies, Stoughton, Mass.), and […] gentamicin to stabilize the endothelium prior to study. Ethylenediamine tetraacetic acid (e.g., di-sodium EDTA.2 H2O) was prepared in Hank's Balanced Salt Solution (HBSS) without calcium chloride, magnesium chloride, or magnesium sulfate: Life Technologies, Grand Island, N.Y.), adjusted to pH7.4, and added to the culture medium at a final concentration of 0.02, 0.2, or 2.0 mg/ml. Corneas were treated with EDTA for 10, 30, or 60 min and then returned to culture medium for up to 96 hrs. Negative controls for EDTA treatment included exposing corneal pieces to all manipulations and incubation conditions, including 1 hour in HBSS, but without EDTA. […]

[2] = test system: corneal endothelial cells; conditions: for Avg. % KI67 (+) Cells: 24 hr pre-incubation in mitogen-containing medium, n = 2-3 donor corneas
Protocol: Twenty-one human corneas were obtained from donors of about 52-75 years of age (Avg.=65.1 years old). Whole corneas were usually cut in quarters to increase sample size. In some cases, whole corneas were used as controls. Corneal pieces were placed endothelial-side up in individual wells of a 24-well tissue culture plate (Falcon, Lincoln Park, N.J.). Pieces were incubated for about 24 hrs in Medium-199 containing 10% fetal bovine serum (FBS), 10 ng/ml epidermal growth factor (EGF) (Upstate Biotechnologies, Lake Placid, N.Y.), 20 ng/ml fibroblast growth factor(FGF) (pituitary-derived, Biomedical Research Technologies, Stoughton, Mass.), and […] gentamicin to stabilize the endothelium prior to study. Ethylenediamine tetraacetic acid (e.g., di-sodium EDTA.2 H2O) was prepared in Hank's Balanced Salt Solution (HBSS) without calcium chloride, magnesium chloride, or magnesium sulfate: Life Technologies, Grand Island, N.Y.), adjusted to pH7.4, and added to the culture medium at a final concentration of 0.02, 0.2, or 2.0 mg/ml. Corneas were treated with EDTA for 10, 30, or 60 min and then returned to culture medium for up to 96 hrs. Negative controls for EDTA treatment included exposing corneal pieces to all manipulations and incubation conditions, including 1 hour in HBSS, but without EDTA. All corneas were maintained at 37° C. in a 5% carbon dioxide, humidified atmosphere until removal for analysis of cell cycle progression.
Immunolocalization was carried out using the same antibodies and protocols as described previously for ZO-1 (10) and Ki67 (19). Corneal pieces stained for Ki67 were mounted in medium containing propidium iodide (PI: Vector Laboratories, Inc., Burlingame, Calif.) to visualize all nuclei. In some cases, samples were double-stained for both Ki67 and ZO-1. Slides were viewed using a Leica TCS 4D confocal microscope equipped with a Leitz DMRBE laser and SCANware 4.2 software (Leica Lasertechnik, Heidelberg, Germany). Images were collected from the central region of the corneal pieces away from the cut edges using a 16×, 40×, or 100×-oil immersion lens. Laser power and gain controls were adjusted to achieve an optimal range of output signal intensity for each channel. Confocal images were collected and micrographs were printed using Photoshop software v4.0 (Adobe Systems, Inc., San Jose, Calif.). For some micrographs, the printing contrast was adjusted to provide a clearer image.
Fluorescence confocal immunocytochemistry for Ki67 was used to evaluate corneal endothelial cells for their ability to enter and complete the cell cycle (i.e., cell proliferation or mitosis). All nuclei were stained with PI. Positive Ki67 staining patterns indicated the presence of actively cycling cells and also acted as markers for specific phases of the cell cycle. Completion of the cell cycle was determined by observation of mitotic figures stained with Ki67. Three representative confocal micrographs were taken per corneal quarter using a 40×-objective lens. An NIH Image v1.62 software program was used to count total PI-stained nuclei, total Ki67-positive cells, and cells in the G1-phase, S/G2-phase, or M-phase of the cell cycle. Cells were counted in five […] areas of each micrograph (=15 areas counted per corneal piece). Counts were averaged and the percentage of actively cycling cells and of cells in each phase of the cell cycle was calculated. Each study was conducted using corneas from 2-3 different donors. Statistical comparisons were made by a paired Student's t-test using a StatView v4.11 software program (Abacus Concepts, Inc., Berkeley, Calif.). Results reported in Table 1 were expressed as percentage of Ki67-positive cells +/−SD.

## O=C(O)CN(CCN(CC(=O)O)CC(=O)O)CC(=O)O [EDTA, ethylenediaminetetraacetic acid]
[1]; 2.0 mg/ml EDTA for 60 minutes
  effect on cell-cell contacts (ZO-1 staining): caused cells to become rounded with only thin cytoplasmic strands connecting adjacent cells
[1]; corneal endothelial cells exposed to EDTA
  percent of treated cells with interrupted cell-contacts: at least 15%
[2]; 24 hours pre-incubation, 0.2 mg/ml EDTA for 60 min, single donor
  time to complete the cell cycle after EDTA treatment (mitotic figures): approximately 48 hrs
[2]; EDTA 0.2 mg/ml, 30 minutes
  Avg. % KI67 (+) Cells: 8.67%
[2]; EDTA 0.2 mg/ml, 60 minutes
  Avg. % KI67 (+) Cells: 11.99%
[2]; EDTA 2.0 mg/ml for 60 minutes, after preincubation in culture medium
  percent of the cells stimulated to proliferate: 16-18%
[2]; EDTA 2.0 mg/ml, 30 minutes
  Avg. % KI67 (+) Cells: 14.28%
[2]; EDTA 2.0 mg/ml, 60 minutes
  Avg. % KI67 (+) Cells: 17.18%
[2]; intact endothelial monolayer treated with EDTA and mitogens
  percent of the cell population that entered the cell cycle: around 17%
[2]; pre-incubation in mitogen-containing medium, then EDTA, 48 hour post-incubation
  cell cycle progression (Ki67 stained nuclei and mitotic figures): did promote cell cycle progression
[2]; up to 2.0 mg/ml EDTA, no prior or simultaneous growth factor, post-incubated 48 hours in mitogen-containing medium
  proliferation (Ki67 staining) with EDTA alone: did not promote proliferation
